Measured values published in PMC11845477, “Exploring the principles behind antibiotics with limited resistance” (Nature Communications, 2025).
Read-outs that look alike come from different tables or passages of the source.

Experiments:
[1] = tested on: A. baumannii ATCC 17978 (SEN) and A. baumannii ATCC BAA-1605 (MDR); assay: Frequency-of-resistance (FoR) assay, relative MIC of mutants; assay type: cell-based, Acinetobacter baumannii; conditions: for MIC: Acinetobacter baumannii
Procedure: (§1) The susceptibility of antibiotics to resistance development was evaluated in two strains of each bacterial species: a multidrug-resistant strain and an antibiotic-sensitive strain of Escherichia coli, Klebsiella pneumoniae, Acinetobacter baumannii, and Pseudomonas aeruginosa. To explore first-step resistance, we previously used a standard protocol for spontaneous frequency-of-resistance analysis (FoR assay) at multiple concentrations of each antibiotic[10],[28],[31]–[33]. […] For all other combinations, approximately 10^10 bacterial cells were exposed to one of each antibiotic on agar plates for two days at concentrations where the given strain is susceptible. We examined resistance levels by contrasting the minimum inhibitory concentration (MICs) of the mutated strains to the original wild-type bacterial strain (i.e., relative MIC).
(§2) To estimate the frequency of spontaneous mutations that confer resistance in a microbial population, we conducted a frequency of resistance (FoR) assay following established protocols[10],[31]–[33]. […] Prior to plating, bacteria were grown overnight in MHB medium at 37 °C and 250 RPM, then centrifuged and washed in MHB. All experiments were performed in triplicate, and plates were incubated at 37 °C for 48 hours. Total colony-forming units (CFUs) were determined by plating appropriate dilutions onto antibiotic-free MHB agar. Resistance frequencies were calculated by dividing the number of resistant colonies by the initial viable cell count. From the plates with the highest antibiotic concentration, ten colonies were selected for MIC determination and whole-genome sequencing.
(§3) A robotic liquid handling system was used to automatically prepare a 11 to 16-step serial dilution in 384-well microtiter plates (Greiner). A final concentration of 5 × 10^5 bacterial cells per mL were inoculated into each well containing 60 µL MHB medium. Bacterial cultures were incubated at 37 °C with continuous shaking (Infors shaker, 900 rpm with 3 mm throw) for 18 hours (2 replicates from each). Cell growth was monitored by measuring the optical density (OD600 values, using Biotek Synergy microplate reader). MIC was defined as the antibiotic concentration of complete growth inhibition (i.e., OD600 < 0.05). Relative MIC was calculated as follows:1 relativeMIC=MICevolved/MICancestor […]
(§4) Supplementary Figure 3. Resistance levels following the frequency of resistance assay across bacterial strains. The level of resistance was measured as the fold change in relative MIC between evolved and ancestral strains. Data are grouped by bacterial strain (A. baumannii (AB), E. coli (EC), K. pneumoniae (KP), and P. aeruginosa (PA)) and categorized as either multidrug-resistant (MDR) or sensitive (SEN). Each data point represents a laboratory evolved line, and boxplots show the median, first and third quartiles, with whiskers indicating the 5th and 95th percentiles. […]
(§5) analysis was performed using two-sided Dunn’s post-hoc test with Benjamini-Hochberg correction for multiple comparisons (**/ * indicates p < 0.01/ 0.05). For detailed information on antibiotic and bacterial species, see Supplementary Table 1. For mode of action groups, refer to Table 1. Source data are provided as a Source Data file.

[2] = tested on: E. coli BW25113: pUCacrAB; assay: AcrAB-TolC efflux overexpression screen, relative MIC; assay type: cell-based, Escherichia coli; conditions: pUCacrAB vs empty pUC118 control
Procedure: Fig. 6 The impact of AcrAB-TolC activity on antibiotic susceptibility. E. coli strains with AcrAB-TolC depletion (BW25113-ΔacrB) and overexpression (BW25113: pUCacrAB) were treated with various antibiotics, and the level of resistance was determined as minimum inhibitory concentration (MIC) relative to a wild-type strain, presented on a logarithmic scale (log2). Each bar represents the mean resistance level (susceptibility, i.e., level of resistance < 0; and resistance, i.e., level of resistance > 0) to antibiotics induced by acrAB overexpression (blue bars; E. coli with a multicopy plasmid of the acrAB genes (pUCacrAB)) and acrB deletion (red bars; mutant E. coli with acrB gene deletion (ΔacrB)) compared to the wild-type. Data are presented as mean values of 3 biological replicates ± SD. […] Detailed information on antibiotic and bacterial strain abbreviations is provided in Supplementary Data 1. Source data are provided as a Source Data file. For information on mode of action groups, refer to Table 1.
For the efflux deficiency screen, the ΔacrB mutant of E. coli K12 BW25113[86] and its equivalent wild-type control strain with intact gene were utilized. In contrast, BW25113 carrying a multicopy acrAB plasmid (pUCacrAB)[87] and its control strain harboring an empty pUC118 plasmid were used to overexpress the acrAB efflux system. According to established protocols via P1 transduction, the suitable acrB deletion mutant (ΔacrB BW25113) was created, while the pUCacrAB plasmid was kindly provided by Kunihiko Nishino and Akihito Yamaguchi (Osaka University, Osaka, Japan). In a prior study, both strains were employed. Since the copy number of the plasmid carrying the efflux pump is controlled by native promoters, external induction is unnecessary.
Antibiotic susceptibilities of these strains were evaluated using a modified version of the standard broth dilution method. In 96-well microtiter plates containing fresh MHB medium, or supplemented MS medium in case of SCH79797, ten-step serial dilutions of an antibiotic from a stock solution were made (2 wells per antibiotic concentration per strain). The two wells contained only supplemented media without any antibiotics […]. Strains were incubated overnight at 37 °C with continuous agitation. Additionally, plasmid containing strains were grown in the presence of 100 µg/mL ampicillin. The culture was diluted to yield a cell suspension with 5 ×10^5 cells/mL and then inoculated into the wells of the microtiter plate. To determine the medium’s background OD value, the first column of the 96-well plate contained solely MHB without inoculum. Prior to the measurement, the plates were incubated at 37 °C with continuous shaking at 900 rpm with 3 mm throw. OD600 values were determined in a microplate reader after 18 hours of incubation (Biotek Synergy 2). The minimum inhibitory concentration (MIC) was determined as the lowest concentration of antibiotic at which the OD600 values were less than 0.05 after subtracting the background value. The log2 of the relative MIC was computed using the following equation:2 log2relativeMICpUCacrAB=MICpUCacrAB/MICpUC118 3 log2relativeMICΔacrB=MICΔacrB/MICwt

[3] = tested on: E. coli ATCC 25922 (SEN) and E. coli NCTC13846 (MDR); assay: Frequency-of-resistance (FoR) assay, relative MIC of mutants; assay type: cell-based, Escherichia coli; conditions: for MIC: Escherichia coli
Procedure: as §1, §2, §3, §4, §5

## CN(C)[C@@H]1C(O)=C(C(N)=O)C(=O)[C@@]2(O)C(O)=C3C(=O)c4c(O)c(NC(=O)CN5CCCC5)cc(F)c4C[C@H]3C[C@@H]12 [Eravacycline]
[1]; Acinetobacter baumannii ATCC 17978 (AB-SEN), evolved line 1 versus ancestor
  Relative MIC: 8
[1]; Acinetobacter baumannii ATCC 17978 (AB-SEN), evolved line 2 versus ancestor
  Relative MIC: 16
[1]; Acinetobacter baumannii ATCC 17978 (AB-SEN), evolved line 3 versus ancestor
  Relative MIC: 8
[1]; Acinetobacter baumannii ATCC BAA 1605 (AB-MDR), evolved line 1 versus ancestor
  Relative MIC: 4
[1]; Acinetobacter baumannii ATCC BAA 1605 (AB-MDR), evolved line 2 versus ancestor
  Relative MIC: 4
[1]; Acinetobacter baumannii ATCC BAA 1605 (AB-MDR), evolved line 3 versus ancestor
  Relative MIC: 8
[1]; read-out: MIC of evolved line, Acinetobacter baumannii ATCC 17978 (AB-SEN), evolved line 1
  MIC: 0.5 µg/mL
[1]; read-out: MIC of evolved line, Acinetobacter baumannii ATCC 17978 (AB-SEN), evolved line 2
  MIC: 1 µg/mL
[1]; read-out: MIC of evolved line, Acinetobacter baumannii ATCC 17978 (AB-SEN), evolved line 3
  MIC: 0.5 µg/mL
[1]; read-out: MIC of evolved line, Acinetobacter baumannii ATCC BAA 1605 (AB-MDR), evolved line 1
  MIC: 8 µg/mL
[1]; read-out: MIC of evolved line, Acinetobacter baumannii ATCC BAA 1605 (AB-MDR), evolved line 2
  MIC: 8 µg/mL
[1]; read-out: MIC of evolved line, Acinetobacter baumannii ATCC BAA 1605 (AB-MDR), evolved line 3
  MIC: 16 µg/mL
[2]; replicate 1
  Relative MIC (log2): 0
[2]; replicate 2
  Relative MIC (log2): 0
[2]; replicate 3
  Relative MIC (log2): 0
[3]; E. coli NCTC 13846 (EC-MDR), evolved line 1, evolved vs ancestor
  Relative MIC: 2
[3]; E. coli NCTC 13846 (EC-MDR), evolved line 2, evolved vs ancestor
  Relative MIC: 1
[3]; E. coli NCTC 13846 (EC-MDR), evolved line 3, evolved vs ancestor
  Relative MIC: 2
[3]; Escherichia coli ATCC 25922 (EC-SEN), evolved line 1 versus ancestor
  Relative MIC: 2
[3]; Escherichia coli ATCC 25922 (EC-SEN), evolved line 2 versus ancestor
  Relative MIC: 1
[3]; Escherichia coli ATCC 25922 (EC-SEN), evolved line 3 versus ancestor
  Relative MIC: 2
[3]; read-out: MIC of evolved line, E. coli NCTC 13846 (EC-MDR), evolved line 1
  MIC: 2 µg/mL
[3]; read-out: MIC of evolved line, E. coli NCTC 13846 (EC-MDR), evolved line 3
  MIC: 2 µg/mL
[3]; read-out: MIC of evolved line, Escherichia coli ATCC 25922 (EC-SEN), evolved line 1
  MIC: 0.25 µg/mL
[3]; read-out: MIC of evolved line, Escherichia coli ATCC 25922 (EC-SEN), evolved line 2
  MIC: 0.125 µg/mL
[3]; read-out: MIC of evolved line, Escherichia coli ATCC 25922 (EC-SEN), evolved line 3
  MIC: 0.25 µg/mL
